Measured values reported in patent publication US11267811B2, “Small molecule inhibitors of galectin-3” (BRISTOL-MYERS SQUIBB COMPANY, priority 2017, dated 2022).

Molecular target: His-tagged recombinant human Gal-3 (hGal-3) (Homo sapiens (Human), UniProt P17931)
Experiment: Gal-3 HTRF assay (His-tagged hGal-3 binding to B-ASF);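 also: compounds preincubated 30 min with hGal-3, then 1 h with B-ASF, detection via terbium anti-His antibody and streptavidin d2. Control with B-ASF counts as full signal, omitting B-ASF as background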
Conditions: HTRF, hGal-3 15 nM, B-ASF 15 nM; read-out: hGal-3 IC50

His-tagged recombinant human Gal-3 (hGal-3), sequence (P17931 whole entry): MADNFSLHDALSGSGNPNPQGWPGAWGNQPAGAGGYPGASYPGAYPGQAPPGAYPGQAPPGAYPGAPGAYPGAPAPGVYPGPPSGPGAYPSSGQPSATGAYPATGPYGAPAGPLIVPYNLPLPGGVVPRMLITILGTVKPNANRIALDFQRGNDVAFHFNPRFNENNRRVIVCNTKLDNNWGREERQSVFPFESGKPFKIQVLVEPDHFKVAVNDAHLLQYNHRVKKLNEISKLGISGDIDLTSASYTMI

IC50	Structure (SMILES)
20 nM	CO[C@@H]1[C@@H](n2cc(-c3cc(F)c(Cl)c(F)c3)nn2)[C@@H](O)[C@@H](CO)O[C@H]1c1nc(C)nn1-c1ccc2ncsc2c1 [Example A5, (2R,3R,4S,5R,6S)-6-(1-(Benzo[d]thiazol-6-yl)-3-methyl-1H-1,2,4-triazol-5-yl)-4-(4-(4-chloro-3,5-difluorophenyl)-1H-1,2,3-triazol-1-yl)-2-(hydroxymethyl)-5-methoxytetrahydro-2H-pyran-3-ol]

Same assay, conditions: read-out: hGal IC50

IC50	Structure (SMILES)
29 nM	Cc1nc([C@@H]2O[C@H](CO)[C@H](O)[C@H](n3cc(-c4cc(F)c(Cl)c(F)c4)nn3)[C@H]2O)n(-c2cc(Cl)cnc2C(F)(F)F)n1 [Example A10]
22 nM	Cc1nc([C@@H]2O[C@H](CO)[C@H](O)[C@H](n3cc(-c4cc(F)c(Cl)c(F)c4)nn3)[C@H]2O)n(-c2cc(Cl)ccc2Br)n1 [Example A13]
24 nM	Cc1nc([C@@H]2O[C@H](CO)[C@H](O)[C@H](n3cc(-c4cc(F)c(Br)c(F)c4)nn3)[C@H]2O)n(-c2cc(Cl)cc3cccnc23)n1 [Example A14]
40 nM	Cc1nc([C@@H]2O[C@H](CO)[C@H](O)[C@H](n3cc(-c4ccc(Cl)c(F)c4)nn3)[C@H]2O)n(-c2cc(Cl)ccc2Br)n1 [Example A15]
82 nM	Cc1nc([C@@H]2O[C@H](CO)[C@H](O)[C@H](n3cc(-c4ccc(Br)c(F)c4)nn3)[C@H]2O)n(-c2cc(Cl)cc3ncccc23)n1 [Example A17]
31 nM	Cc1nc([C@@H]2O[C@H](CO)[C@H](O)[C@H](n3cc(-c4ccc(Cl)c(F)c4)nn3)[C@H]2O)n(-c2cc(Cl)ccc2OC(F)(F)F)n1 [Example A20]
22 nM	Cc1nc([C@@H]2O[C@H](CO)[C@H](O)[C@H](n3cc(-c4ccc(Br)c(F)c4)nn3)[C@H]2O)n(-c2ccc3ncsc3c2)n1 [Example A22]
34 nM	Cc1nc([C@@H]2O[C@H](CO)[C@H](O)[C@H](n3cc(-c4cc(F)c(Cl)c(Cl)c4)nn3)[C@H]2O)n(-c2ccc3ncsc3c2)n1 [Example A24]
45 nM	Cc1nc([C@@H]2O[C@H](CO)[C@H](O)[C@H](n3cc(-c4cc(F)c(Cl)c(Cl)c4)nn3)[C@H]2O)n(-c2ccc3nc(C)sc3c2)n1 [Example A25]
17 nM	Cc1nc([C@@H]2O[C@H](CO)[C@H](O)[C@H](n3cc(-c4cc(F)c(Cl)c(F)c4)nn3)[C@H]2O)n(-c2cc3sc(C)nc3cc2C(F)(F)F)n1 [Example A30]
41 nM	Cc1nc([C@@H]2O[C@H](CO)[C@H](O)[C@H](n3cc(-c4cc(F)c(Br)c(F)c4)nn3)[C@H]2O)n(-c2ccc3nc(C)sc3c2)n1 [Example A32]
103 nM	Cc1nc([C@@H]2O[C@H](CO)[C@H](O)[C@H](n3cc(-c4cc(F)c(Br)c(F)c4)nn3)[C@H]2O)n(-c2cc3sc(C)nc3cc2C(F)(F)F)n1 [Example A33]
46 nM	Cc1nc([C@@H]2O[C@H](CO)[C@H](O)[C@H](n3cc(-c4cc(F)c(Cl)c(F)c4)nn3)[C@H]2O)n(-c2cc(Cl)ccc2C2CC2)n1 [Example A34]
151 nM	Cc1nc([C@@H]2O[C@H](CO)[C@H](O)[C@H](n3cc(-c4cc(F)c(Br)c(F)c4)nn3)[C@H]2O)n(-c2cc(Cl)ccc2C2CC2)n1 [Example A35]
126 nM	Cc1nc([C@@H]2O[C@H](CO)[C@H](O)[C@H](n3cc(-c4cc(F)c(Cl)c(F)c4)nn3)[C@H]2O)n(-c2cc(CC(F)(F)F)ccc2Cl)n1 [Example A40]
11 nM	Cc1nc([C@@H]2O[C@H](CO)[C@H](O)[C@H](n3cc(-c4cc(F)c(Cl)c(F)c4)nn3)[C@H]2O)n(-c2cc(Cl)ccc2C(C)(C)C)n1 [Example A42]
140 nM	Cc1nc([C@@H]2O[C@H](CO)[C@H](O)[C@H](n3cc(-c4ccc(Cl)c(F)c4F)nn3)[C@H]2O)n(-c2cc(Cl)ccc2C2CC2)n1 [Example A44]
54 nM	Cc1nc([C@@H]2O[C@H](CO)[C@H](O)[C@H](n3cc(-c4ccc(Cl)c(F)c4)nn3)[C@H]2O)n(-c2cc(Cl)c(F)cc2Cl)n1 [Example A47]
46 nM	Cc1nc([C@@H]2O[C@H](CO)[C@H](O)[C@H](n3cc(-c4cc(F)c(Cl)c(F)c4)nn3)[C@H]2O)n(-c2cc(Cl)cc(F)c2Cl)n1 [Example A49]

Second part, the compound before the results:

Structure (SMILES)	IC50
OC[C@H]1O[C@@H](c2ncnn2-c2cc(Cl)ccc2C(F)(F)F)[C@H](O)[C@@H](n2cc(-c3cc(F)c(F)c(F)c3)nn2)[C@H]1O [Example A7]	27 nM
Cc1nc([C@@H]2O[C@H](CO)[C@H](O)[C@H](n3cc(-c4cc(F)c(F)c(F)c4)nn3)[C@H]2O)n(-c2ccc3nc(C(F)(F)F)sc3c2)n1 [Example A8]	505 nM
Cc1nc([C@@H]2O[C@H](CO)[C@H](O)[C@H](n3cc(-c4ccc(Cl)c(F)c4)nn3)[C@H]2O)n(-c2ccc3nc(C(F)(F)F)sc3c2)n1 [Example A9]	837 nM
Cc1nc([C@@H]2O[C@H](CO)[C@H](O)[C@H](n3cc(-c4cc(F)c(Cl)c(F)c4)nn3)[C@H]2O)n(-c2cc(Cl)cc3cccnc23)n1 [Example A11]	17 nM
Cc1nc([C@@H]2O[C@H](CO)[C@H](O)[C@H](n3cc(-c4ccc(Br)c(F)c4)nn3)[C@H]2O)n(-c2cc(Cl)cc3cccnc23)n1 [Example A12]	46 nM
Cc1nc([C@@H]2O[C@H](CO)[C@H](O)[C@H](n3cc(-c4cc(F)c(Cl)c(F)c4)nn3)[C@H]2O)n(-c2cc(Cl)cc3ncccc23)n1 [Example A16]	51 nM
Cc1nc([C@@H]2O[C@H](CO)[C@H](O)[C@H](n3cc(-c4cc(F)c(Cl)c(Cl)c4)nn3)[C@H]2O)n(-c2cc(Cl)ccc2OC(F)(F)F)n1 [Example A26]	36 nM
Cc1nc([C@@H]2O[C@H](CO)[C@H](O)[C@H](n3cc(-c4cc(F)c(Br)c(F)c4)nn3)[C@H]2O)n(-c2ccc3ncsc3c2)n1 [Example A29]	27 nM
Cc1nc([C@@H]2O[C@H](CO)[C@H](O)[C@H](n3cc(-c4ccc(Br)c(F)c4)nn3)[C@H]2O)n(-c2cc3sc(C)nc3cc2C(F)(F)F)n1 [Example A31]	22 nM
Cc1nc([C@@H]2O[C@H](CO)[C@H](O)[C@H](n3cc(-c4cc(F)c(Cl)c(F)c4)nn3)[C@H]2O)n(-c2ccc3nc(C)sc3c2)n1 [Example A36]	53 nM
Cc1nc([C@@H]2O[C@H](CO)[C@H](O)[C@H](n3cc(-c4cc(F)c(Cl)c(F)c4)nn3)[C@H]2O)n(-c2cc(Cl)cc3ccncc23)n1 [Example A37]	51 nM
Cc1nc([C@@H]2O[C@H](CO)[C@H](O)[C@H](n3cc(-c4ccc(Br)c(F)c4)nn3)[C@H]2O)n(-c2cc(Cl)ccc2C2CC2)n1 [Example A38]	72 nM
Cc1nc([C@@H]2O[C@H](CO)[C@H](O)[C@H](n3cc(-c4ccc(Br)c(F)c4)nn3)[C@H]2O)n(-c2cc(Cl)cc3ccncc23)n1 [Example A39]	161 nM
Cc1nc([C@@H]2O[C@H](CO)[C@H](O)[C@H](n3cc(-c4ccc(Cl)c(F)c4)nn3)[C@H]2O)n(-c2cc(Cl)ccc2C2CC2)n1 [Example A41]	59 nM
Cc1nc([C@@H]2O[C@H](CO)[C@H](O)[C@H](n3cc(-c4cc(F)c(Cl)c(F)c4)nn3)[C@H]2O)n(-c2cc(C(F)F)ccc2Cl)n1 [Example A43]	50 nM
Cc1nc([C@@H]2O[C@H](CO)[C@H](O)[C@H](n3cc(-c4cc(F)c(Cl)c(F)c4)nn3)[C@H]2O)n(-c2cc(Cl)c(F)cc2Cl)n1 [Example A46]	33 nM
Cc1nc([C@@H]2O[C@H](CO)[C@H](O)[C@H](n3cc(-c4ccc(Cl)c(F)c4)nn3)[C@H]2O)n(-c2cc(Cl)cc(F)c2Cl)n1 [Example A48]	47 nM
